The record followed here is PubChem BioAssay (NCI).

Assay in all cases: NCI anticancer screen, dose series, 48 h
For assay [1], the system named is ACHN renal.
The subject of assay [2] is BT-549 breast.
The subject of assay [3] is HCC-2998 colon.
Assay [4] has as its system HS 578T breast.
The test system of assay [5] is MCF7 breast.
Assay [6] concerns RPMI-8226 leukemia.
The subject of assay [7] is SN12C renal.
The test system of assay [8] is SNB-75 CNS.
The subject of assay [9] is SR leukemia.
In assay [10] the test system is UACC-62 melanoma.

Where “and” joins values, the source holds several entries; their conditions need not be identical. Equal entries are not always repeated.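 96-well plates; 48 h exposure; 5 concentrations. Endpoints by linear interpolation between flanking doses. Not reached: highest tested concentration assigned. At the GI50, growth is halved. TGI: concentration producing complete growth inhibition.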 Where only a bound is given, the exact number is not on record here.

For the compound `CN1CCN(Cc2ccc(NC(=O)c3cncc(C#Cc4c(N)ncc5ccccc45)c3)cc2C(F)(F)F)CC1`, the GI50 in assay [1] was 0.569 µM; in assay [2], 1.62 µM; in assay [3], 0.619 µM; in [4] it was 0.64 µM; in [5], 0.198 µM; in [6], 0.835 µM. Besides, the GI50 is 0.627 µM in assay [7], 0.872 µM in [8], 0.259 µM in [9] and 0.791 µM in assay [10]. In addition, the TGI in [1] amounted to 1.17 µM; in [2] it was 4.7 µM; in assay [3] it was 1.26 µM; in assay [4], 1.86 µM; in [5] it was 0.853 µM; in assay [6], 2.36 µM. Moreover, the TGI in [7] came out at 1.31 µM; in [8], 1.61 µM; in assay [9] it was 3.7 µM; in assay [10] it was 1.55 µM.

As to `O=C(Nc1c[nH]c(=O)[nH]c1=O)Oc1ccccc1`, the TGI in assay [1], in [2], in assay [3], in [4], in [5] and in [6] was greater than 100 µM throughout. For the same compound, the TGI in [7], in assay [8], in assay [9] and in assay [10] was greater than 100 µM throughout.

In the case of `CCc1ccc([OH2+])c(C(=O)[O-])c1.CCc1ccc([OH2+])c(C(=O)[O-])c1.CCc1ccc([OH2+])c(C(=O)[O-])c1.CCc1ccc([OH2+])c(C(=O)[O-])c1.[Cu+2].[Cu+2]`, the GI50 in [1] was greater than 100 µM; in assay [2], 78.6 µM; in [3] it was 64.8 µM; in assay [4], greater than 100 µM; in assay [5], 35 µM; in [6] it was 41.3 µM. For the same compound, the GI50 in [7] was 98.3 µM; in assay [8], 40.6 µM; in assay [9] it was 24.5 µM; in [10], 70.5 µM. The TGI in assay [1], in assay [2], in assay [3], in [4], in [5] and in [6] was greater than 100 µM in each case. Moreover, the TGI in [7] was greater than 100 µM; in assay [8], greater than 89.3 µM; in assay [9], greater than 100 µM; in assay [10], greater than 100 µM.

For the compound `O=C(NOCCO)c1ccc2cncn2c1Nc1ccc(I)cc1F`, the GI50 in [1] was 0.3 µM; in assay [2], > 10 µM and 11.1 µM; in assay [3], 0.00299 µM and < 0.01 µM; in assay [4], > 10 µM and 60.6 µM; in assay [5], > 10 µM and 26.2 µM; in [6] it was > 10 µM and 24.6 µM. Further, the GI50 in assay [7] is > 10 µM and 19.8 µM; in assay [8], > 8.85 µM and 14.3 µM; in assay [9], > 10 µM and 19.1 µM; in assay [10], 0.00255 µM and < 0.01 µM. Besides, the TGI in assay [1] is greater than 100 µM; in [2], greater than 91.7 µM; in assay [4] it was greater than 100 µM; in assay [5], greater than 100 µM; in [6], greater than 100 µM; in assay [7], greater than 100 µM. In addition, the TGI is greater than 100 µM in assay [8]; greater than 100 µM in assay [9]; 0.0343 µM and 0.0433 µM in assay [10].

For the compound `COc1cc(/C=N/NC(=O)c2cnn3c2NC(c2ccccc2)C3)ccc1OCc1ccccc1` (centres undefined), the GI50 was 0.903 µM in assay [1]; 0.571 µM in assay [2]; 2.35 µM in assay [3]; 0.908 µM in assay [4]; 0.365 µM in assay [5]; 0.955 µM in assay [6]. The GI50 was 2.26 µM in [7], 0.595 µM in assay [8], 0.214 µM in assay [9] and 0.679 µM in [10]. For the same compound, the TGI was found to be 6.99 µM in [1]; 4.85 µM in [2]; 24.5 µM in assay [3]; 3.3 µM in assay [4]; 14.6 µM in [5]; 23.6 µM in assay [6]. In addition, the TGI in assay [7] was determined as 11 µM; in [8] it was 2.24 µM; in [9], 5.05 µM; in assay [10], 7.14 µM.

In the case of `COc1cc(C(=O)/C=C/c2c[nH]c3ccccc23)cc(OC)c1OC`, the GI50 in [1] was 0.0509 µM; in assay [2], 0.0288 µM; in assay [3], 0.0959 µM; in assay [4], 0.0208 µM; in [5], 0.0857 µM; in [6], 0.0319 µM. The GI50 in assay [7] was 0.0631 µM; in assay [8], 0.0264 µM; in assay [9] it was less than 0.01 µM; in assay [10], less than 0.01 µM. The TGI came out at 16.7 µM in assay [1]; 4.16 µM in [2]; 7.59 µM in assay [3]; 30.4 µM in assay [4]; 15 µM in [5]; 2.82 µM in assay [6]. For the same compound, the TGI is 18.9 µM in assay [7], 37.2 µM in [8], 13.8 µM in assay [9] and 15.7 µM in assay [10].

In the case of `O=C1c2ccccc2C(=O)c2c1ccc1c3ccccc3n(-c3ccccc3)c21`, the TGI was 41.2 µM in [1]; 51.3 µM in assay [2]; 72.6 µM in [3]; 42.7 µM in assay [4]; greater than 55.6 µM in assay [5]; 25.8 µM in assay [6]. The TGI came out at 32.3 µM in assay [7], 44.9 µM in assay [8], 41.9 µM in assay [9] and 24.1 µM in [10].

Turning to `N#Cc1cnn(C(=O)c2nn(-c3ccc(Cl)cc3)cc2O)c1N`, the GI50 in assay [1] is 0.322 µM; in assay [2], 0.287 µM; in assay [3] it was 0.623 µM; in [4] it was 0.192 µM; in assay [5] it was 0.373 µM; in [6], 0.21 µM. For the same compound, the GI50 in assay [7] is 0.342 µM; in [8], 0.248 µM; in [9], 0.278 µM; in assay [10], 0.303 µM. Further, the TGI in [1] was found to be 12.5 µM; in [2], 7.17 µM; in assay [3] it was 18 µM; in assay [4], 3.43 µM; in [5] it was 10.5 µM; in [6], 0.657 µM. Moreover, the TGI in [7] was 17.5 µM; in assay [8] it was 17.8 µM; in assay [9], 0.983 µM; in assay [10], 2.22 µM.
